Assay results from the supplement of paper PMC6045584.
± gives the standard deviation of the averaged measurements.

How the values were obtained:
[1] = compound: Oc1ccc(/C=C/c2cc(O)cc(O)c2)cc1 [RESVERATROL]; experiment: area under dose-response curve of surviving fraction (unscaled, Aref=0) (surviving fraction x log10(nM)); higher = more resistant; conditions: exposure time: 5 days; dose range 0.5-1000 nM
Procedure, shortened: (§1)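 Tumour cell lines in 384-well plates were exposed to eight inhibitor concentrations, from 0.5 to 1000 nM, for five days, and viability was read by CellTiter-Glo luminescence in three screens per line. Signals were normalised to DMSO-only wells, and 3-parameter logistic regression in the drc R package fitted dose-response survival curves to the surviving fractions. Area under the curve is given as the unscaled activity area. That area is taken over log10 dose with Aref = 0.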

[2] = compound: O=c1[nH]cc(F)c(=O)[nH]1 [FLUOROURACIL]; experiment: as above; conditions: exposure time: 5 days; dose range 0.5-1000 nM
Procedure, shortened: as §1

[3] = compound: Nc1ncn([C@H]2C[C@H](O)[C@@H](CO)O2)c(=O)n1 [DECITABINE]; experiment: as above; conditions: exposure time: 5 days; dose range 0.5-1000 nM
Procedure, shortened: as §1

[4] = compound: CS(=O)(=O)CCNCc1ccc(-c2ccc3ncnc(Nc4ccc(OCc5cccc(F)c5)c(Cl)c4)c3c2)o1 [LAPATINIB]; experiment: as above; conditions: exposure time: 5 days; dose range 0.5-1000 nM
Procedure, shortened: as §1

[5] = compound: COc1cc2c(cc1O)CC[C@@H]1[C@@H]2CC[C@]2(C)[C@@H](O)CC[C@@H]12 [2-METHOXYESTRADIOL]; experiment: as above; conditions: exposure time: 5 days; dose range 0.5-1000 nM
Procedure, shortened: as §1

[6] = compound: CN(C)CC[C@H](CSc1ccccc1)Nc1ccc(S(=O)(=O)NC(=O)c2ccc(N3CCN(Cc4ccccc4-c4ccc(Cl)cc4)CC3)cc2)cc1[N+](=O)[O-] [ABT-737]; experiment: as above; conditions: exposure time: 5 days; dose range 0.5-1000 nM
Procedure, shortened: as §1

[7] = compound: CCN(CC)CCCCNc1ncc2cc(-c3cc(OC)cc(OC)c3)c(NC(=O)NC(C)(C)C)nc2n1; experiment: surviving fraction relative to DMSO-only wells; higher = less growth inhibition; conditions: exposure time: 5 days
Procedure, shortened: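 For each tumour cell line, log-phase cells were put into 384-well plates at 250–500 cells per well, then after 24 hours exposed continuously for five days to inhibitors at 0.5, 1, 5, 10, 50, 100, 500 and 1000 nM. Viability was assessed by CellTiter-Glo luminescence, with surviving fraction expressed relative to the median of DMSO-only wells. Lines were screened three times and retained only if replicate Pearson r exceeded 0.7 and median Z' exceeded 0.3.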

[8] = compound: CC[C@@H](C(=O)[C@@H](C)[C@@H](O)[C@H](C)[C@@H]1O[C@@H]([C@@H](CC)C(=O)O)CC[C@@H]1C)[C@H]1O[C@]2(C=C[C@@H](O)[C@]3(CC[C@@](C)([C@H]4CC[C@](O)(CC)[C@H](C)O4)O3)O2)[C@H](C)C[C@@H]1C [SALINOMYCIN]; experiment: area under dose-response curve of surviving fraction (unscaled, Aref=0) (surviving fraction x log10(nM)); higher = more resistant; conditions: exposure time: 5 days; dose range 0.5-1000 nM
Procedure, shortened: as §1

[9] = compound: CCN(CC)CCCCNc1ncc2cc(-c3cc(OC)cc(OC)c3)c(NC(=O)NC(C)(C)C)nc2n1; experiment: as above; conditions: exposure time: 5 days; dose range 0.5-1000 nM
Procedure, shortened: as §1

[10] = compound: CS(=O)(=O)c1ccc(C(=O)Nc2ccc(Cl)c(-c3ccccn3)c2)c(Cl)c1 [VISMODEGIB]; experiment: as above; conditions: exposure time: 5 days; dose range 0.5-1000 nM
Procedure, shortened: as §1

[11] = compound: COc1cccc2c1C(=O)c1c(O)c3c(c(O)c1C2=O)C[C@@](O)(C(=O)CO)C[C@@H]3O[C@H]1C[C@H](N)[C@H](O)[C@H](C)O1 [DOXORUBICIN]; experiment: as above; conditions: exposure time: 5 days; dose range 0.5-1000 nM
Procedure, shortened: as §1

[12] = compound: C=CCNC1=C2C[C@@H](C)C[C@H](OC)[C@H](O)[C@@H](C)/C=C(\C)[C@H](OC(N)=O)[C@@H](OC)/C=C\C=C(/C)C(=O)NC(=CC1=O)C2=O [17-AAG]; experiment: as above; conditions: exposure time: 5 days; dose range 0.5-1000 nM
Procedure, shortened: as §1

[13] = compound: COc1ccc(C2=N[C@@H](c3ccc(Cl)cc3)[C@@H](c3ccc(Cl)cc3)N2C(=O)N2CCNC(=O)C2)c(OC(C)C)c1 [NUTLIN3]; experiment: as above; conditions: exposure time: 5 days; dose range 0.5-1000 nM
Procedure, shortened: as §1

| Test System | area under dose-response curve [1] | area under dose-response curve [2] | area under dose-response curve [3] | area under dose-response curve [4] | area under dose-response curve [5] | area under dose-response curve [6] | surviving fraction ([7]; 0.5 nM) | surviving fraction ([7]; 1 nM) | surviving fraction ([7]; 5 nM) | surviving fraction ([7]; 10 nM) | surviving fraction ([7]; 50 nM) | surviving fraction ([7]; 100 nM) | surviving fraction ([7]; 500 nM) | surviving fraction ([7]; 1000 nM) | area under dose-response curve [8] | area under dose-response curve [9] | area under dose-response curve [10] | area under dose-response curve [11] | area under dose-response curve [12] | area under dose-response curve [13] |
| --- | --- | --- | --- | --- | --- | --- | --- | --- | --- | --- | --- | --- | --- | --- | --- | --- | --- | --- | --- | --- |
| HMT3552 BREAST | 3.64 | 3.23 | 3.71 | 3.24 | 2.95 | 3.5 | 1.15 | 0.971 | 0.993 | 1.05 | 0.89 | 0.98 | 0.827 | 0.803 | – | – | – | – | – | – |
| HS578T BREAST | 3.82 | 2.85 | 2.99 | 3.34 | 2.71 | 3.8 | 0.97 ± 0.1 | 1.03 ± 0.19 | 0.973 ± 0.098 | 1.02 ± 0.02 | 0.836 ± 0.021 | 0.801 ± 0.056 | 0.886 ± 0.096 | 0.738 ± 0.095 | 2.87 | 3.03 | 3.11 | 1.93 | 1.45 | – |
| HMLE3 BREAST | 3.42 | – | 2.98 | – | 3.23 | 3.75 | 0.929 ± 0.061 | 0.934 ± 0.049 | 0.895 ± 0.05 | 0.995 ± 0.056 | 0.764 ± 0.049 | 0.683 ± 0.052 | 0.428 ± 0.0075 | 0.41 ± 0.023 | 2.7 | 2.61 | 3.06 | 1.36 | 1.61 | – |
| HCC70 BREAST | 3.59 | – | – | 3.58 | 3.06 | 3.49 | 0.977 ± 0.084 | 1 ± 0.017 | 0.957 ± 0.12 | 1.07 ± 0.041 | 1.05 ± 0.06 | 1.08 ± 0.037 | 0.962 ± 0.055 | 1 ± 0.09 | 2.56 | 3.36 | 3.57 | 2.04 | 1.53 | 3.49 |
| G292 BONE | 3.42 | 3.29 | 2.61 | 3.3 | 2.87 | 3.45 | 0.836 ± 0.27 | 0.97 ± 0.048 | 0.958 ± 0.027 | 0.918 ± 0.042 | 0.495 ± 0.17 | 0.387 ± 0.008 | 0.181 ± 0.012 | 0.18 ± 0.0066 | 2.65 | 2.16 | 3.2 | 1.77 | 1.84 | 3.34 |
| HCC38 BREAST | – | 2.87 | 2.64 | 3 | – | – | 1.15 ± 0.23 | 0.97 ± 0.19 | 1.15 ± 0.17 | 1.12 ± 0.19 | 0.979 ± 0.37 | 1.04 ± 0.18 | 0.824 ± 0.17 | 0.846 ± 0.2 | 2.83 | – | 2.67 | 1.77 | 0.903 | 4.18 |
| HS57T BREAST | – | – | – | – | – | – | 0.932 ± 0.022 | 0.899 ± 0.03 | 0.977 ± 0.067 | 0.952 ± 0.015 | 0.67 ± 0.03 | 0.693 ± 0.078 | 0.577 ± 0.021 | 0.579 ± 0.089 | – | – | – | – | – | – |
